Laboratory results as given in ChEMBL document CHEMBL5032490, “Neuroactive Type-A γ-Aminobutyric Acid Receptor Allosteric Modulator Steroids from the Hypobranchial Gland of Marine Mollusk, Conus geographus” (J Med Chem, 2021).
Active and inactive are the calls of the source.

Legend:
[1] = (§1) Reduction in Kcl-induced cytosolic calcium ion concentration in mouse DRG neurons at 10 microg/ml measured after 1 hr by Fura2AM dye based fluorescence microscopic analysis in response to Kcl; assay type: functional, Neuron; set-up: scale not given: the % may be the effect or the level left; conditions: dose 10 µg/ml
[2] = Induction of cytosolic calcium ion concentration in mouse peptidergic nociceptive DRG neuron at 10 uM measured after 1 hr by Fura2AM dye based fluorescence microscopic analysis; assay type: functional
[3] = Induction of Kcl-induced cytosolic calcium ion concentration in mouse DRG neurons in response to Kcl at 10 microg/ml measured after 1 hr by Fura2AM dye based fluorescence microscopic analysis; assay type: functional, Neuron; conditions: dose 10 µg/ml
[4] = Induction of cytosolic calcium ion concentration in mouse DRG neurons at 10 microg/ml measured after 1 hr by Fura2AM dye based fluorescence microscopic analysis; assay type: functional, Neuron; conditions: dose 10 µg/ml
[5] = Reduction of ATP and Kcl-induced increase in cytosolic Ca2+ ion concentration mouse DRG other neuron subtype assessed as neuron population at 10 uM measured after 1 hr by Fura2AM dye based fluorescence microscopic analysis; assay type: functional; set-up: scale not given: the % may be the effect or the level left
[6] = Induction of ATP-induced cytosolic calcium ion concentration in mouse DRG neurons assessed as neuron population at 10 microg/ml measured after 1 hr by Fura2AM dye based fluorescence microscopic; assay type: functional; conditions: dose 10 µg/ml
[7] = Reduction of ATP and Kcl-induced increase in cytosolic Ca2+ ion concentration mouse peptidergic nociceptive DRG neuron assessed as neuron population at 10 uM measured after 1 hr by Fura2AM dye based fluorescence microscopic analysis; assay type: functional; set-up: scale not given: the % may be the effect or the level left
[8] = Induction of ATP and Kcl-induced increase in cytosolic Ca2+ ion concentration mouse peptidergic nociceptive DRG neuron assessed as neuron population at 10 uM measured after 1 hr by Fura2AM dye based fluorescence microscopic analysis; assay type: functional
[9] = Induction of cytosolic calcium ion concentration in mouse DRG other neuron subtype at 10 uM measured after 1 hr by Fura2AM dye based fluorescence microscopic analysis; assay type: functional
[10] = Induction of cytosolic calcium ion concentration in mouse microglia cells at 10 uM measured after 1 hr by Fura2AM dye based fluorescence microscopic analysis; assay type: functional
[11] = Induction of ATP and Kcl-induced increase in cytosolic Ca2+ ion concentration mouse […] assessed as neuron population at 10 uM measured after 1 hr by Fura2AM dye based fluorescence microscopic analysis; assay type: functional
[12] = Induction of ATP and Kcl-induced increase in cytosolic Ca2+ ion concentration mouse DRG other neuron subtype assessed as neuron population at 10 uM measured after 1 hr by Fura2AM dye based fluorescence microscopic analysis; assay type: functional
[13] = Induction of ATP and Kcl-induced increase in cytosolic Ca2+ ion concentration mouse non-peptidergic nociceptive DRG neuron assessed as neuron population at 10 uM measured after 1 hr by Fura2AM dye based fluorescence microscopic analysis; assay type: functional
[14] = Reduction in ATP-induced cytosolic calcium ion concentration in mouse DRG neurons at 10 microg/ml measured after 1 hr by Fura2AM dye based fluorescence microscopic analysis in response to ATP; assay type: functional, Neuron; set-up: scale not given: the % may be the effect or the level left; conditions: dose 10 µg/ml
[15] = Induction of cytosolic calcium ion concentration in mouse non-peptidergic nociceptive DRG neuron at 10 uM measured after 1 hr by Fura2AM dye based fluorescence microscopic analysis; assay type: functional
[16] = Reduction of ATP and Kcl-induced increase in cytosolic Ca2+ ion concentration mouse non-peptidergic nociceptive DRG neuron assessed as neuron population at 10 uM measured after 1 hr by Fura2AM dye based fluorescence microscopic analysis; assay type: functional; set-up: scale not given: the % may be the effect or the level left
[17] = Reduction of ATP and Kcl-induced increase in cytosolic Ca2+ ion concentration mouse […] assessed as neuron population at 10 uM measured after 1 hr by Fura2AM dye based fluorescence microscopic analysis; assay type: functional; set-up: scale not given: the % may be the effect or the level left
Neuron [18] = test: Effect on mouse GABA receptor expressed in mouse C-low-threshold mechanoreceptors DRG neurons at 10 uM; assay type: tissue-based
Neuron [19] = test: Effect on mouse GABA receptor expressed in mouse DRG neurons at 10 uM using cold thermosensors; assay type: tissue-based
Neuron [20] = test: Effect on mouse GABA receptor expressed in mouse non-peptidergic nociceptive DRG neurons at 10 uM; assay type: tissue-based
Neuron [21] = test: Effect on mouse GABA receptor expressed in mouse peptidergic nociceptive DRG neurons at 10 uM; assay type: tissue-based
Neuron [22] = test: as §1; assay type: functional; conditions: dose 10.0 µg/ml

In the case of C[C@H](CC[C@H](O)C(C)(C)O)[C@H]1CC[C@H]2[C@@H]3C(=O)C=C4C[C@@H](O)CC[C@]4(C)[C@H]3CC[C@]12C, the Activity [1] is reported as 49%, the Activity [2] is reported as 37% and the Activity [3] is reported as 6%. The Activity [4] was 58%, the Activity [5] was 3% and the Activity [6] was 21%. It also gave an Activity [7] of 4%, an Activity [8] of 45% and an Activity [9] of 2%. The Activity [10] was 4%, the Activity [11] was 3% and the Activity [12] was 5%. The Activity [13] was 26%, the Activity [14] was 15% and the Activity [15] was 15%. It also gave an Activity [16] of 7% and an Activity [17] of 24%.

In the case of C[C@H](CCC(=O)O)[C@H]1CC[C@H]2[C@@H]3[C@H](O)C[C@@H]4C[C@H](O)CC[C@]4(C)[C@H]3C[C@H](O)[C@]12C, the Activity (Neuron [18]) is reported as “inactive”, the Activity (Neuron [19]) is reported as “inactive” and the Activity (Neuron [20]) is reported as “inactive”. For the same compound, the Activity (Neuron [21]) was “inactive”.

In the case of CC(C)[C@@H](C)/C=C/[C@@H](C)[C@H]1CC[C@H]2C3=CC=C4C[C@@H](O)CC[C@]4(C)[C@H]3CC[C@]12C, the Activity (Neuron [18]) is reported as “inactive”, the Activity (Neuron [19]) is reported as “inactive” and the Activity (Neuron [20]) is reported as “inactive”. For the same compound, the Activity (Neuron [21]) was “inactive”.

CC(C)C(=O)CC[C@@H](C)[C@H]1CC[C@H]2[C@@H]3C(=O)C=C4C=CCC[C@]4(C)[C@H]3CC[C@]12C gave an Activity [1] of 1%, an Activity [3] of 19% and an Activity [4] of 6%. For the same compound, the Activity [6] was 11% and the Activity [14] was 13%.

For C[C@H](CC[C@@H](O)C(C)(C)O)[C@H]1CC[C@H]2[C@@H]3C(=O)C=C4C[C@H](O)CC[C@]4(C)[C@H]3CC[C@]12C, the Activity (Neuron [22]) was “inactive”, the Activity [3] was 54% and the Activity [4] was 19%. The Activity [6] was 33% and the Activity [14] was 3%.

Work on C[C@H](CCC(=O)C(C)(C)O)[C@H]1CC[C@H]2[C@@H]3C(=O)C=C4C=CCC[C@]4(C)[C@H]3CC[C@]12C yielded an Activity [1] of 2%, an Activity [3] of 22% and an Activity [4] of 35%. For the same compound, the Activity [6] was 9% and the Activity [14] was 17%.

In the case of CC(C)CCC[C@@H](C)[C@H]1CC[C@H]2[C@@H]3CC=C4C[C@@H](O)CC[C@]4(C)[C@H]3CC[C@]12C, the Activity (Neuron [18]) is reported as “inactive”, the Activity (Neuron [19]) is reported as “inactive” and the Activity (Neuron [20]) is reported as “inactive”. The Activity (Neuron [21]) was “inactive”.

C[C@H](CC[C@@H](O)C(C)(C)O)[C@H]1CC[C@H]2[C@@H]3C(=O)C=C4C=CCC[C@]4(C)[C@H]3CC[C@]12C gave an Activity [1] of 4%, an Activity [3] of 38% and an Activity [4] of 3%. It also gave an Activity [6] of 36% and an Activity [14] of 3%.
